Test results taken from patent US20090068290A1, “BIFEPRUNOX DOSES FOR TREATING SCHIZOPHRENIA” (priority 2006, published 2009).

Key:
Type in all cases: in vivo, human
[1] = system: adult subjects with schizophrenia; assay: BPRS total score, Clinical Study Three; details: bifeprunox 30 mg; Endpoint LOCF
Excerpt: (§1) SECONDARY OBJECTIVES To assess the efficacy of bifeprunox in treating schizophrenia using the Positive Symptom sub-scale score of the PANSS, the Negative Symptom sub-scale score of the PANSS, the General Psychopathology sub-scale of the PANSS, Brief Psychiatric Rating Scale (BPRS) total score derived from the PANSS, BPRS psychosis score derived from the PANSS, the Clinical Global Impression Severity of Illness score (CGI-S), the Clinical Global Impression Improvement score (CGI-I), CGI-I responder rate, PANSS responder rate based on the PANSS total score, Calgary Depression Scale for Schizophrenia (CDSS), and Subject Satisfaction rating.
(§2) There were four treatment arms in this study, approximately 144 subjects per arm. […] After completing the Single-Blind Placebo Lead-in Period of at least three days, bifeprunox-treated subjects were titrated from 0.25 mg up to 20 mg/day or 30 mg/day according to a standardized titration scheme over a seven- or eight-day period, respectively. When the assigned dose was reached, subjects were maintained at that dose for the remainder of the six week treatment period. […] Subjects were hospitalized (if not already inpatients) after eligibility for study entry was verified, starting from the Screening Visit until at least 10 days after Baseline. Subjects could be hospitalized longer than 10 days if considered medically necessary by the Investigator. Rating scale assessments for efficacy and abnormal movement disorders were done weekly except for Week 5. […] Subject satisfaction with study medication was assessed at Week 6.

[2] = system: adult subjects with schizophrenia; assay: PANSS positive symptom subscale score, Clinical Study Three; details: LOCF, ITT; for PANSS Positive Symptom Subscale Score, Trt Effect (bifeprunox—placebo): ANCOVA
Excerpt: as §1, §2

[3] = system: adult subjects with schizophrenia; assay: CGI responder rate, Clinical Study One
Method: There were five treatment groups in this study. […] Study medication was administered once daily. After Baseline measurements were performed, the titration phase was begun. Bifeprunox treated subjects were titrated up to 5 mg, 10 mg or 20 mg according to a standardized titration schedule (Day 1: 0.125 mg, Day 2: 0.25 mg, Day 3: 0.5 mg, Day 4: 1.0 mg, Day 5: 2.0 mg, Day 6: 5.0 mg, Day 7: 10.0 mg, Day 8: 20 mg). When the assigned dose was reached, subjects were maintained at that dose for the remainder of the six-week treatment period.
CLINICAL STUDY ONE: A CGI responder is defined as a subject who is categorized as “very much improved” or “much improved” on the CGI Improvement scale.

[4] = system: adult subjects with schizophrenia; assay: CGI responder rate, Clinical Study Three; details: LOCF; for CGI Responder No, % / CGI Responder Yes, %: Week 6/Endpoint
Excerpt: CLINICAL STUDY THREE: A CGI responder is defined as a subject who is categorized as “very much improved” or “much improved” on the CGI Improvement scale. […] No notable differences were observed between the placebo group and either of the two bifeprunox dose groups.

[5] = system: adult subjects with schizophrenia; assay: PANSS general psychopathology subscale score, Clinical Study Two; details: for Change from Baseline in General Psychopathology Subscale Score, Mean (SD) / Change from Baseline in General Psychopathology Subscale Score, Median / Trt Effect (bifeprunox - placebo), General Psychopathology Subscale Score / mean change (SD) from Baseline to Endpoint in PANSS general psychopathology subscale score: LOCF; for Change from Baseline in General Psychopathology Subscale Score, Mean (SD) / Change from Baseline in General Psychopathology Subscale Score, Median / Trt Effect (bifeprunox - placebo), General Psychopathology Subscale Score: ITT population; for Trt Effect (bifeprunox - placebo), General Psychopathology Subscale Score: ANCOVA; for PANSS general psychopathology subscale score, treatment effect (bifeprunox—placebo): Endpoint LOCF; for mean change (SD) from Baseline to Endpoint in PANSS general psychopathology subscale score: ITT
Method: Rating scale assessments were performed weekly, except for week 5, to measure the change from baseline to endpoint of the PANSS total score. Other assessments included: PANSS positive symptom subscale score, PANSS negative symptom subscale score, PANSS general pschopathology subscale score, BPRS total score, BPRS psychosis score, the CGI-S score, the CGI-I score, responder rates based on the PANSS total score, and the Calgary Depression Scale for Schizophrenia (CDSS). […]
Subjects who completed this study had the option to continue in the long-term. […] Risperidone-treated subjects were titrated from 2 mg to 6 mg daily over a three-day period and were subsequently maintained at 6 mg/day for the remainder of the treatment period. […] Blood samples were also obtained at Screening/Baseline, Week 3, and Week 6 for clinical laboratory assessments.

[6] = Bifeprunox 20 mg, Week 6/Endpoint
[7] = Bifeprunox 30 mg, Week 6/Endpoint
[8] = Bifeprunox 40 mg, Week 6/Endpoint

O=c1[nH]c2cccc(N3CCN(Cc4cccc(-c5ccccc5)c4)CC3)c2o1 [Bifeprunox, 7-[4-([1,1′-biphenyl]-3-ylmethyl)-1-piperazinyl]-2(3H)-benzoxazolone]
BPRS total score, treatment effect (bifeprunox—placebo) [1]: −1.1 | Change from Baseline in PANSS Positive Symptom Subscale Score, Mean (SD) ([2]; Bifeprunox 20 mg, Week 1): −1.6 (3.7) | Change from Baseline in PANSS Positive Symptom Subscale Score, Median ([2]; Bifeprunox 20 mg, Week 1): −2 | Change from Baseline in PANSS Positive Symptom Subscale Score, Mean (SD) ([2]; Bifeprunox 20 mg, Week 2): −3.0 (4.7) | Change from Baseline in PANSS Positive Symptom Subscale Score, Median ([2]; Bifeprunox 20 mg, Week 2): −3 | Change from Baseline in PANSS Positive Symptom Subscale Score, Mean (SD) ([2]; Bifeprunox 20 mg, Week 3): −3.8 (5.2) | Change from Baseline in PANSS Positive Symptom Subscale Score, Median ([2]; Bifeprunox 20 mg, Week 3): −3 | Change from Baseline in PANSS Positive Symptom Subscale Score, Mean (SD) ([2]; Bifeprunox 20 mg, Week 4): −4.2 (5.7) | Change from Baseline in PANSS Positive Symptom Subscale Score, Median ([2]; Bifeprunox 20 mg, Week 4): −4 | Change from Baseline in PANSS Positive Symptom Subscale Score, Mean (SD) [2, 6]: −4.3 (6.1) | Change from Baseline in PANSS Positive Symptom Subscale Score, Median [2, 6]: −4 | PANSS Positive Symptom Subscale Score, Trt Effect (bifeprunox—placebo) [2, 6]: −1.1 | Change from Baseline in PANSS Positive Symptom Subscale Score, Mean (SD) ([2]; Bifeprunox 30 mg, Week 1): −2.0 (3.8) | Change from Baseline in PANSS Positive Symptom Subscale Score, Median ([2]; Bifeprunox 30 mg, Week 1): −2 | Change from Baseline in PANSS Positive Symptom Subscale Score, Mean (SD) ([2]; Bifeprunox 30 mg, Week 2): −2.8 (5.1) | Change from Baseline in PANSS Positive Symptom Subscale Score, Median ([2]; Bifeprunox 30 mg, Week 2): −3 | Change from Baseline in PANSS Positive Symptom Subscale Score, Mean (SD) ([2]; Bifeprunox 30 mg, Week 3): −3.6 (6.0) | Change from Baseline in PANSS Positive Symptom Subscale Score, Median ([2]; Bifeprunox 30 mg, Week 3): −4 | Change from Baseline in PANSS Positive Symptom Subscale Score, Mean (SD) ([2]; Bifeprunox 30 mg, Week 4): −4.0 (6.3) | Change from Baseline in PANSS Positive Symptom Subscale Score, Median ([2]; Bifeprunox 30 mg, Week 4): −4 | Change from Baseline in PANSS Positive Symptom Subscale Score, Mean (SD) [2, 7]: −4.2 (6.8) | Change from Baseline in PANSS Positive Symptom Subscale Score, Median [2, 7]: −5 | PANSS Positive Symptom Subscale Score, Trt Effect (bifeprunox—placebo) [2, 7]: −0.7 | CGI Responder at Endpoint (LOCF), % ([3]; 5 mg): 33% | CGI Responder at Endpoint (LOCF), % ([3]; 10 mg): 19% | CGI Responder at Endpoint (LOCF), % ([3]; 20 mg): 25% | CGI Responder No, % ([4]; 20 mg): 62% | CGI Responder Yes, % ([4]; 20 mg): 38% | CGI Responder No, % ([4]; 30 mg): 66% | CGI Responder Yes, % ([4]; 30 mg): 34% | CGI-I responder rate (subjects much or very much improved) at Endpoint ([4]; bifeprunox 20 mg): 38% | CGI-I responder rate (subjects much or very much improved) at Endpoint ([4]; bifeprunox 30 mg): 34% | Change from Baseline in General Psychopathology Subscale Score, Mean (SD) ([5]; Bifeprunox 30 mg, Week 1): −2.7 (6.4) | Change from Baseline in General Psychopathology Subscale Score, Median ([5]; Bifeprunox 30 mg, Week 1): −2 | Change from Baseline in General Psychopathology Subscale Score, Mean (SD) ([5]; Bifeprunox 30 mg, Week 2): −4.9 (8.1) | Change from Baseline in General Psychopathology Subscale Score, Median ([5]; Bifeprunox 30 mg, Week 2): −4 | Change from Baseline in General Psychopathology Subscale Score, Mean (SD) ([5]; Bifeprunox 30 mg, Week 3): −5.8 (9.2) | Change from Baseline in General Psychopathology Subscale Score, Median ([5]; Bifeprunox 30 mg, Week 3): −5 | Change from Baseline in General Psychopathology Subscale Score, Mean (SD) ([5]; Bifeprunox 30 mg, Week 4): −6.1 (9.7) | Change from Baseline in General Psychopathology Subscale Score, Median ([5]; Bifeprunox 30 mg, Week 4): −5 | Change from Baseline in General Psychopathology Subscale Score, Mean (SD) [5, 7]: −6.0 (10.2) | Change from Baseline in General Psychopathology Subscale Score, Median [5, 7]: −5 | Trt Effect (bifeprunox - placebo), General Psychopathology Subscale Score [5, 7]: −2.5 | Change from Baseline in General Psychopathology Subscale Score, Mean (SD) ([5]; Bifeprunox 40 mg, Week 1): −2.7 (5.9) | Change from Baseline in General Psychopathology Subscale Score, Median ([5]; Bifeprunox 40 mg, Week 1): −2 | Change from Baseline in General Psychopathology Subscale Score, Mean (SD) ([5]; Bifeprunox 40 mg, Week 2): −3.4 (7.9) | Change from Baseline in General Psychopathology Subscale Score, Median ([5]; Bifeprunox 40 mg, Week 2): −3 | Change from Baseline in General Psychopathology Subscale Score, Mean (SD) ([5]; Bifeprunox 40 mg, Week 3): −3.8 (8.8) | Change from Baseline in General Psychopathology Subscale Score, Median ([5]; Bifeprunox 40 mg, Week 3): −3 | Change from Baseline in General Psychopathology Subscale Score, Mean (SD) ([5]; Bifeprunox 40 mg, Week 4): −3.4 (9.3) | Change from Baseline in General Psychopathology Subscale Score, Median ([5]; Bifeprunox 40 mg, Week 4): −2 | Change from Baseline in General Psychopathology Subscale Score, Mean (SD) [5, 8]: −3.8 (10.1) | Change from Baseline in General Psychopathology Subscale Score, Median [5, 8]: −3 | Trt Effect (bifeprunox - placebo), General Psychopathology Subscale Score [5, 8]: −0.7 | PANSS general psychopathology subscale score, treatment effect (bifeprunox—placebo) ([5]; bifeprunox 30 mg): −2.5 | mean change (SD) from Baseline to Endpoint in PANSS general psychopathology subscale score ([5]; bifeprunox 30 mg): −6.0 (10.2) | PANSS general psychopathology subscale score, treatment effect (bifeprunox—placebo) ([5]; bifeprunox 40 mg): −0.7 | mean change (SD) from Baseline to Endpoint in PANSS general psychopathology subscale score ([5]; bifeprunox 40 mg): −3.8 (10.1)
